In US20230322767A1, “ARYL SUBSTITUTED PYRROLO-PYRIDINONES AND THERAPEUTIC USES THEREOF” (Bayer Aktiengesellschaft, priority 2020, published 2023):
Values joined by “and” are separate entries in the source; they are usually repeats but may differ in a detail not shown here. Identical values can stand only once.

The compounds below were run against wild-type Epidermal Growth Factor Receptor (EGFR) (Homo sapiens (Human), UniProt P00533) (assay: WT-EGFR Kinase Assay (TR-FRET, 2 mM ATP)). Details: EGFR Wildtyp 2 mM ATP IC50 [mol/l] (median), median or individual measurements.
Format: biochemical
From the text: Inhibitory activity of compounds of the present invention against wild-type Epidermal Growth Factor Receptor (EGFR) was quantified employing the TR-FRET based EGFR assay as described in the following paragraphs.
Recombinant fusion protein of N-terminal Glutathion-S-Transferase (GST) and a fragment of human EGFR (amino acids R669 to A1210), expressed in Sf9 insect cells and purified via affinity chromatography using Glutathion Sepharose as described above, was used as kinase. As substrate for the kinase reaction the biotinylated peptide biotin-Ahx-[…] (C-terminus in amide form) was used which can be purchased e.g. form the company Biosynthan GmbH (Berlin-Buch, Germany).
For the assay 50 nl of a 100 fold concentrated solution of the test compound in DMSO was pipetted into either a black low volume 384 well microtiter plate or a black 1536 well microtiter plate (both Greiner Bio-One, Frickenhausen, Germany), 2 μL of a solution of EGFR in aqueous assay buffer [50 mM Hepes pH 7.0, 10 mM MgCl2, 1 mM dithiothreitol, 0.5 mM EGTA, 0.3 mM activated sodium ortho-vanadate, 0.005% (w/v) bovine serum albumin, 0.005% (v/v) Tween-20] were added and the mixture was incubated for 15 min at 22° C. to allow pre-binding of the test compounds to the enzyme before the start of the kinase reaction. […] The concentration of EGFR was adjusted depending of the activity of the enzyme lot and was chosen appropriate to have the assay in the linear range, typical concentration was […]. The reaction was stopped by the addition of 3 μL of a solution of HTRF detection reagents (83.3 nM streptavidine-XL665 [Cisbio Bioassays, Codolet, France] and 1.67 nM PT66-Tb-Cryptate, a terbium-cryptate labelled anti-phospho-tyrosine antibody from Cisbio Bioassays [instead of the PT66-Tb-cryptate PT66-Eu-Chelate from Perkin Elmer can also be used]) in an aqueous EDTA-solution (133.3 mM EDTA, 0.2% (w/v) bovine serum albumin in 50 mM HEPES pH 7.5).
The resulting mixture was incubated 1 h at 22° C. to allow the binding of the biotinylated phosphorylated peptide to the streptavidine-XL665 and the PT66-Tb-Cryptate. Subsequently the amount of phosphorylated substrate was evaluated by measurement of the resonance energy transfer from the PT66-Tb-Cryptate to the streptavidine-XL665. Therefore, the fluorescence emissions at 620 nm and 665 nm after excitation at 337 nm were measured in a HTRF reader, e.g. a Pherastar (BMG Labtechnologies, Offenburg, Germany) or a Viewlux (Perkin-Elmer). The ratio of the emissions at 665 nm and at 622 nm was taken as the measure for the amount of phosphorylated substrate.

Chain of wild-type Epidermal Growth Factor Receptor (EGFR) (P00533 669-1210): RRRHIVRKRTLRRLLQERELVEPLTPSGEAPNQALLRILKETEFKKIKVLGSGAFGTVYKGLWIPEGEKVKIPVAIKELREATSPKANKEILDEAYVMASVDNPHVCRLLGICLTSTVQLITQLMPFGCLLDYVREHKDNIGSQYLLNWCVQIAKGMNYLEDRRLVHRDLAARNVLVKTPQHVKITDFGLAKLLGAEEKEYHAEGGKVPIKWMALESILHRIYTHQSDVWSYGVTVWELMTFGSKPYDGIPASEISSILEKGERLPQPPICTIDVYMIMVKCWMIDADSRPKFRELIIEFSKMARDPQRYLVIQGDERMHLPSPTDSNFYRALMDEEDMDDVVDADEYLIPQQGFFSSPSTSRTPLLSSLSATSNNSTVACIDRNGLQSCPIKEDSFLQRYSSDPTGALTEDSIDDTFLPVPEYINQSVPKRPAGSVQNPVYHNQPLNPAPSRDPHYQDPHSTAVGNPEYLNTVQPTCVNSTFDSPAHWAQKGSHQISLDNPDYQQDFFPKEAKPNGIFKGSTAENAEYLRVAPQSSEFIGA

| SMILES | IC50 |
| --- | --- |
| CC(C(=O)Nc1cc(-c2[nH]c3c(CC(F)(F)F)cn(C)c(=O)c3c2-c2ccccc2)ccn1)c1ccc(F)cc1 (racemic) [Example 014, 2-(4-fluorophenyl)-N-{4-[5-methyl-4-oxo-3-phenyl-7-(2,2,2-trifluoroethyl)-4,5-dihydro-1H-pyrrolo[3,2-c]pyridin-2-yl]pyridin-2-yl}propanamide] | > 20 µM |
| CC(C(=O)Nc1cc(-c2[nH]c3c(CC(F)(F)F)cn(C)c(=O)c3c2-c2ccc(F)cc2)ccn1)c1ccc(F)cc1 (single isomer, unassigned; (-)) [Example 023, (-)-2-(4-fluorophenyl)-N-{4-[3-(4-fluorophenyl)-5-methyl-4-oxo-7-(2,2,2-trifluoroethyl)-4,5-dihydro-1H-pyrrolo[3,2-c]pyridin-2-yl]pyridin-2-yl}propanamide] | > 20 µM |
| Cn1cc(CC(F)(F)F)c2[nH]c(-c3ccnc(NC(=O)C(CC(F)F)c4ccc(F)cc4)c3)c(-c3ccccc3)c2c1=O (single isomer, unassigned; (-)) [Example 019, (-)-4,4-difluoro-2-(4-fluorophenyl)-N-{4-[5-methyl-4-oxo-3-phenyl-7-(2,2,2-trifluoroethyl)-4,5-dihydro-1H-pyrrolo[3,2-c]pyridin-2-yl]pyridin-2-yl}butanamide] | > 20 µM |
| Cc1cn(C)c(=O)c2c(-c3ccc(F)cc3)c(-c3ccnc(NC(=O)C(CC(F)F)c4ccc(F)cc4)c3)[nH]c12 (racemic) [Example 034, 4,4-difluoro-2-(4-fluorophenyl)-N-{4-[3-(4-fluorophenyl)-5,7-dimethyl-4-oxo-4,5-dihydro-1H-pyrrolo[3,2-c]pyridin-2-yl]pyridin-2-yl}butanamide] | > 20 µM |
| Cn1cc(CC(F)(F)F)c2[nH]c(-c3ccnc(NC(=O)C(CC(F)F)c4ccc(F)cc4)c3)c(-c3ccc(F)cc3)c2c1=O (racemic) [Example 026, 4,4-difluoro-2-(4-fluorophenyl)-N-{4-[3-(4-fluorophenyl)-5-methyl-4-oxo-7-(2,2,2-trifluoroethyl)-4,5-dihydro-1H-pyrrolo[3,2-c]pyridin-2-yl]pyridin-2-yl}butanamide] | > 20 µM |
| Cc1cn(C)c(=O)c2c(-c3ccc(F)cc3)c(-c3ccnc(NC(=O)C(C)c4ccc(F)cc4)c3)[nH]c12 (single isomer, unassigned; (-)) [Example 031, (-)-2-(4-fluorophenyl)-N-{4-[3-(4-fluorophenyl)-5,7-dimethyl-4-oxo-4,5-dihydro-1H-pyrrolo[3,2-c]pyridin-2-yl]pyridin-2-yl}propanamide] | > 20 µM |
| CC1(C)CNC(=O)c2c1[nH]c(-c1ccnc(NC(=O)C(CC(F)F)c3ccc(F)cc3)c1)c2-c1ccccc1 (racemic) [Example 043, N-[4-(7,7-dimethyl-4-oxo-3-phenyl-4,5,6,7-tetrahydro-1H-pyrrolo[3,2-c]pyridin-2-yl)pyridin-2-yl]-4,4-difluoro-2-(4-fluorophenyl)butanamide] | > 20 µM |
| CC(C(=O)Nc1cc(-c2[nH]c3c(c2-c2ccccc2)C(=O)N(C)C2(CCC2)C3)ccn1)c1ccc(F)cc1 (single isomer, unassigned; (-)) [Example 053, (-)-2-(4-fluorophenyl)-N-[4-(5′-methyl-4′-oxo-3′-phenyl-1′,4′,5′,7′-tetrahydrospiro[cyclobutane-1,6′-pyrrolo[3,2-c]pyridin]-2′-yl)pyridin-2-yl]propanamide] | > 20 µM |
| CN1C(=O)c2c([nH]c(-c3ccnc(NC(=O)C(CC(F)F)c4ccc(F)cc4)c3)c2-c2ccccc2)CC12CCC2 (racemic) [Example 049, 4,4-difluoro-2-(4-fluorophenyl)-N-[4-(5′-methyl-4′-oxo-3′-phenyl-1′,4′,5′,7′-tetrahydrospiro[cyclobutane-1,6′-pyrrolo[3,2-c]pyridin]-2′-yl)pyridin-2-yl]butanamide] | > 20 µM |
| Cn1ccc2[nH]c(-c3ccnc(NC(=O)C(CC(F)F)c4ccc(F)cc4)c3)c(-c3ccccc3)c2c1=O (single isomer, unassigned) [Example 007, 4,4-difluoro-2-(4-fluorophenyl)-N-[4-(5-methyl-4-oxo-3-phenyl-4,5-dihydro-1H-pyrrolo[3,2-c]pyridin-2-yl)pyridin-2-yl]butanamide] | 11.8 µM and 13.4 µM |
| CN1CCc2[nH]c(-c3ccnc(NC(=O)C(CC(F)F)c4ccc(F)cc4)c3)c(-c3cccnc3)c2C1=O (racemic) [Example 009, 4,4-difluoro-2-(4-fluorophenyl)-N-{4-[5-methyl-4-oxo-3-(pyridin-3-yl)-4,5,6,7-tetrahydro-1H-pyrrolo[3,2-c]pyridin-2-yl]pyridin-2-yl}butanamide] | > 20 µM |
| Cc1cn(C)c(=O)c2c(-c3ccc(F)cc3)c(-c3ccnc(NC(=O)C(C)c4ccc(F)cc4)c3)[nH]c12 (racemic) [Example 030, 2-(4-fluorophenyl)-N-{4-[3-(4-fluorophenyl)-5,7-dimethyl-4-oxo-4,5-dihydro-1H-pyrrolo[3,2-c]pyridin-2-yl]pyridin-2-yl}propanamide] | > 20 µM |
| CN1CCc2[nH]c(-c3ccnc(NC(=O)C(CC(F)F)c4ccc(F)cc4)c3)c(-c3ccccc3)c2C1=O (racemic) [Example 002, 4,4-difluoro-2-(4-fluorophenyl)-N-[4-(5-methyl-4-oxo-3-phenyl-4,5,6,7-tetrahydro-1H-pyrrolo[3,2-c]pyridin-2-yl)pyridin-2-yl]butanamide] | > 20 µM |

Same assay, conditions: read-out: EGFR Wildtyp 2 mM ATP IC50 [mol/l] (median), median or individual measurements

| SMILES | IC50 |
| --- | --- |
| Cn1cc(CC2CC2)c2[nH]c(-c3ccnc(NC(=O)Cc4ccc(F)cc4)c3)c(-c3ccccc3)c2c1=O [Example 056, N-{4-[7-(cyclopropylmethyl)-5-methyl-4-oxo-3-phenyl-4,5-dihydro-1H-pyrrolo[3,2-c]pyridin-2-yl]pyridin-2-yl}-2-(4-fluorophenyl)acetamide] | > 20 µM |
| CC(C(=O)Nc1cc(-c2[nH]c3c(CC(F)(F)F)cn(C)c(=O)c3c2-c2ccc(F)cc2)ccn1)c1ccc(F)cc1 (single isomer, unassigned; (+)) [Example 024, (+)-2-(4-fluorophenyl)-N-{4-[3-(4-fluorophenyl)-5-methyl-4-oxo-7-(2,2,2-trifluoroethyl)-4,5-dihydro-1H-pyrrolo[3,2-c]pyridin-2-yl]pyridin-2-yl}propanamide] | > 20 µM |
| CN1CCc2[nH]c(-c3ccnc(NC(=O)Cc4ccc(F)cc4)c3)c(-c3cccnc3)c2C1=O [Example 012, 2-(4-fluorophenyl)-N-{4-[5-methyl-4-oxo-3-(pyridin-3-yl)-4,5,6,7-tetrahydro-1H-pyrrolo[3,2-c]pyridin-2-yl]pyridin-2-yl}acetamide] | > 20 µM |
| CC(C(=O)Nc1cc(-c2[nH]c3c(c2-c2ccccc2)C(=O)NCC3(C)C)ccn1)c1ccc(F)cc1 (single isomer, unassigned) [Example 048, N-[4-(7,7-dimethyl-4-oxo-3-phenyl-4,5,6,7-tetrahydro-1H-pyrrolo[3,2-c]pyridin-2-yl)pyridin-2-yl]-2-(4-fluorophenyl)propanamide] | > 20 µM |
| CC1CN(C)C(=O)c2c1[nH]c(-c1ccnc(NC(=O)C(CC(F)F)c3ccc(F)cc3)c1)c2-c1ccccc1 (stereo not shown) [Example 039] | > 20 µM |
| CC(C(=O)Nc1cc(-c2[nH]c3c(c2-c2ccc(F)cc2)C(=O)N(C)CC3CC(F)(F)F)ccn1)c1ccc(F)cc1 (stereo not shown) [Example 021] | > 20 µM |
